According to publication PMC10044445, “Tuning the Anthranilamide Peptidomimetic Design to Selectively Target Planktonic Bacteria and Biofilm” (Antibiotics, 2023):
Values after ≈ are worked out from the molar mass of the structure shown. Like-named read-outs stand apart in the source and are kept apart here.

How the values were obtained:
[1] = test system: E. coli; design: method as in PMID 30070287; conditions: cited from earlier work
[2] = test system: MRC-5 human fibroblasts; design: method as in PMID 30070287; conditions: cited from earlier work
[3] = test system: S. aureus; design: method as in PMID 30070287; conditions: cited from earlier work
[4] = test system: S. aureus 38; assay: Cytoplasmic membrane permeability (depolarization) assay with DiSC3(5); type: cell-based; conditions: 2× MIC
Method: (§1) Compounds 13d (series I), 16b (series II), 19a (series III) and 19b (series III) were selected as representative examples of each series with strong antibacterial activities (particularly against S. aureus). As AMPs are known to be membrane-targeting, membrane permeability assays are frequently used to confirm the mode of action of peptidomimetics. In this assay, S. aureus and E. coli were treated with the active compounds in the presence of the membrane potential-sensitive cyanine dye 3,3′-dipropylthiadicarbocyanine iodide (DiSC3(5)). Perturbation of the membrane by the compounds leads to loss of the membrane potential gradient (depolarization), causing the dye to be released into the medium and resulting in an increase in fluorescence intensity.
(§2) The method was adopted from Wu et al. with slight modifications. Bacterial cytoplasmic membrane permeability was determined using membrane potential sensitive dye diSC3-5 (3,3′-dipropylthiadicarbocyanine iodide) which penetrates inside bacterial cells depending on the membrane potential gradient of the cytoplasmic membrane. Bacteria were grown in MHB to mid-log phase by incubating with shaking at 37 °C for 18–24 h. Following incubation, bacteria were washed with 5 mM HEPES containing 20 mM glucose pH 7.2 and resuspended in the same buffer to an OD600 0.05–0.06 which gave 1 × 10^7 CFU/mL. The dye diSC3-5 was added at 4 µM to the bacterial suspension. The suspensions were incubated at room temperature for 1 h in the dark for maximum dye take-up by the bacterial cells. Then, 100 mM KCl was added to balance the K+ outside and inside the bacterial cell to prevent further uptake or outflow of the dye. For Gram-negative bacteria, 0.5 mM EDTA was used to destabilize the lipopolysaccharides-Mg^2+-Ca^2+ complex to help in dye penetration without affecting bacterial growth. A total of 100 µL of bacterial suspension was added to 96-well microtiter plate and with equal volume of antimicrobial compounds. DMSO (20%) was set as a positive control while dye and only bacterial cells were set as a negative control. Fluorescence was measured with a luminescence spectrophotometer at 3 min intervals at an excitation wavelength of 622 nm and an emission wavelength of 670 nm.
(§3) Figure 2 Cytoplasmic membrane depolarization of S. aureus 38 and E. coli K12 by 13d, 16b, 19a, 19b, as assessed by release of the membrane potential-sensitive dye DiSC3(5) measured spectroscopically at λex = 622 nm and λem = 670 nm at 2× MIC concentration. Data are presented as means (±SD) of three independent repeats. 20% DMSO was used as a positive control.

[5] = test system: E. coli K12; assay: as above; type: cell-based; conditions: 2× MIC
Method: as §1, §2, §3

[6] = test system: S. aureus; assay: Minimum inhibitory concentration, broth microdilution (CLSI); type: cell-based, Staphylococcus aureus; conditions: for MIC90: broth microdilution in MHB, 18–24 h; for MIC: Table 2, lysine derivative versus parent, read-out: MIC S. aureus
Method: (§4) The antimicrobial activity of the compounds was evaluated by a broth microdilution assay using the procedure described by CLSI. Briefly, bacteria were grown to mid-log phase in Muller Hinton broth (MHB) with shaking at 120 rpm and incubated at 37 °C for 12–16 h. Following incubation, bacteria were washed three times in PBS pH 7.4 at 3500 g for 10 min. After washing, bacteria were diluted with fresh MHB. The turbidity of the bacterial suspensions was adjusted so that OD660nm was 0.1, which gave 1 × 10^8 CFU/mL, and then further diluted to achieve 5 × 10^5 CFU/mL as a final bacterial concentration. Each compound was diluted (250–3.9 µM) through two-fold dilution. Wells in microtiter plates were loaded with 100 µL of inoculum containing 5 × 10^5 CFU/mL bacteria. Wells without any compound and containing only bacteria were used as negative controls (i.e., no inhibition of growth). Wells with media only were set as blank. The microtiter plate was wrapped with paraffin to prevent evaporation and incubated with shaking at 120 rpm and 37 °C for 18–24 h. After incubation, spectrophotometric readings were taken. The well without any bacterial growth and showing zero spectrophotometric reading was regarded as the MIC of the compounds.

[7] = test system: S. aureus biofilms; assay: Disruption of established biofilm, crystal violet staining; type: cell-based; conditions: 24 h treatment
Method: (§5) Bacteria in biofilms are 10–1000 times more resistant to conventional antibiotics than planktonic bacteria. Moreover, biofilms are insensitive to antiseptics and many host immune responses. Since up to 80% of all microbial infections are biofilm-related, an effective antibacterial agent should also be able to disrupt established biofilms to tackle bacterial infections.
(§6) Bacterial cultures (S. aureus and E. coli) were grown in MHB media overnight at 37 °C with shaking at 120 rpm. Cultures were diluted (1:20) in an MHB medium and 200 μL aliquots were dispensed to flat bottom 96-well plate wells (Sarstedt, Mawson Lakes, Australia). Cultures were supplemented with varying concentrations of synthetic compounds dissolved in DMSO. Biofilm was grown in a 96-well plate for 24 h followed by the addition of synthetic compounds and incubated further for 24 h. Plates were sealed with self-adhesive microplate sealers (TopSeal-A, PerkinElmer) to allow air diffusion and to prevent condensation. Biofilms adhered on polystyrene substratum were quantified by crystal violet staining as described previously. The experiment was performed in triplicate.
Figure 4 Disruption of established biofilms of S. aureus after 24 h treatment with 1× to 8× MIC concentrations of compounds 13d, 16b, 19a, 19b. The positive control represents the pre-established biofilms without any compounds. Error bars indicate the standard error of the mean (SEM) of three independent experiments.

[8] = test system: E. coli biofilms; assay: as above; type: cell-based; conditions: 24 h treatment; for disruption of established E. coli biofilm (in words): 1× to 8× MIC; for disruption of E. coli biofilm mass: 2× MIC (62.4 µM)
Method: as §5, §6
Figure 5 Disruption of established biofilm of E. coli after 24 h treatment with 1× to 8× MIC concentrations of compounds 13d, 16b, 19a, and 19b. The negative control represents pre-established biofilms without any compounds. Error bars indicate the standard error of the mean (SEM) of three independent experiments.

[9] = test system: E. coli; assay: Minimum inhibitory concentration, broth microdilution (CLSI); type: cell-based, Escherichia coli; conditions: for MIC90 / MIC: Escherichia coli; for MIC90: broth microdilution in MHB, 18–24 h; for MIC: Table 2, lysine derivative versus parent, read-out: MIC E. coli
Method: as §4

[10] = test system: Bacillus subtilis strain BS23; assay: Membrane integrity study, epifluorescence microscopy (atpA-GFP); type: cell-based; conditions: 50 μM, 45 min
Method: The mechanism of action of compounds 16b, 19a, and […] was further studied using Bacillus subtilis strain BS23, which contains a fusion of green fluorescence protein (GFP) to the α-subunit of the membrane-localized ATP synthase. In the assay, if the compounds damage the membrane, the green fluorescence will change from a uniform distribution to a clustered distribution. Epifluorescence microscopy was used to image the changes in the cells.
Bacillus subtilis BS23 (atpA-GFP) was grown in LB (10 g/L Tryptone, 5 g/L Yeast Extract, 5 g/L NaCl) supplemented with 0.5% (w/v) xylose at 37 °C, to an OD600 of 0.3 and then treated with 50 μM of the AMP mimics, 10 μg/mL of colistin or 0.25% (v/v) DMSO (vehicle control). The cells were grown for a further 45 min before being examined by epifluorescence microscopy. Micrographs were background subtracted, merged, and aligned in images.
Figure 3 Epifluorescence microscopy images showing membrane integrity of B. subtilis strain BS23 treated with colistin (10 µg/mL) and compounds 16b, 19a, and 19b (50 µM).

[11] = test system: MRC-5 human fibroblasts; assay: Toxicity assay, Alamar Blue; type: cell-based; conditions: for IC50: MRC5, MRC-5 human fibroblasts, 72 h drug incubation, Alamar Blue
Method: Normal human lung fibroblasts MRC-5 were cultured in minimal essential medium (MEM, Invitrogen) supplemented with 10% foetal calf serum (FCS), 1% L-glutamine–penicillin–streptomycin, 2% sodium bicarbonate, 1% non-essential amino acids (NEAA), and 1% sodium pyruvate. The cell line was maintained at 37 °C in 5% CO2 as an adherent monolayer and was passaged upon reaching confluence by standard cell culture techniques. MRC-5 cells were seeded at 2 × 10^4 cells per well in 96-well plates to ensure full confluence (quiescence). Cells were treated for 24 h after seeding with 0.1 to 1000 μM of compounds. After 72 h of drug incubation, the treated media was replaced with fresh media containing 10% Alamar Blue and the cells were incubated for another 6 h. The metabolic activity was detected by spectrophotometric analysis by assessing the absorbance of Alamar blue as previously described by Pasquier et al. Cell proliferation was determined and expressed as a percentage of untreated control cells. The determination of IC50 values was performed using GraphPad Prism 6 (San Diego, CA, USA). Each experiment was performed in triplicate and was repeated in three independent experiments.

For `NCCNC(=O)[C@H](Cc1c[nH]c2ccccc12)NC(=O)c1cc(Br)ccc1NC(=O)c1ccc2ccccc2c1` [Compound 12a], the “MIC E. coli” value ([1]; Table 2, parent compound) is given as greater than 125 µM, the “MIC90 E. coli” value ([1]; value of earlier paper) is given as greater than 125 µM and the IC50 [2] is given as less than 20 µM. For the same compound, the “MIC S. aureus” value ([3]; Table 2, parent compound) was 3.9 µM (≈ 2.33 µg/mL) and the “MIC90 S. aureus” value ([3]; value of earlier paper) was 3.9 µM (≈ 2.33 µg/mL).

With `COc1cc2ccccc2cc1C(=O)Nc1ccc(Br)cc1C(=O)N[C@@H](Cc1c[nH]c2ccccc12)C(=O)NCCCN` [Compound 13d, (S)-N-(2-((1-((3-aminopropyl)amino)-3-(1H-indol-3-yl)-1-oxopropan-2-yl)carbamoyl)-4-bromophenyl)-3-methoxy-2-naphthamide] the “cytoplasmic membrane depolarization (DiSC3(5) release)” value (“cytoplasmic membrane depolarization” for short) [4] was “relatively inactive”, the “cytoplasmic membrane depolarization” value [5] was “relatively inactive” and the MIC90 ([6]; Staphylococcus aureus) was 3.9 µM (≈ 2.51 µg/mL). For the same compound, the “disruption of established S. aureus biofilm” value ([7]; 4× MIC (15.6 µM)) was 75%, the “disruption of established S. aureus biofilm” value ([7]; 8× MIC (31.2 µM)) was 99% and the “disruption of established E. coli biofilm (in words)” value (from here on “disruption … (in words)”) [8] was “significant disruption”. The “disruption of E. coli biofilm mass” value [8] was 59% and the MIC90 [9] was 62.5 µM (≈ 40.2 µg/mL).

In the case of `NCCNC(=O)[C@H](Cc1c[nH]c2ccccc12)NC(=O)c1cc(-c2ccc3ccccc3c2)ccc1N` [Compound 16b, (S)-2-amino-N-(1-((2-aminoethyl)amino)-3-(1H-indol-3-yl)-1-oxopropan-2-yl)-5-(naphthalen-2-yl)benzamide], the MIC90 ([6]; Staphylococcus aureus) is reported as 3.9 µM (≈ 1.92 µg/mL), the “membrane damage (clustering of GFP fluorescence)” value (“membrane damage” below) [10] is reported as “caused membrane damage” and the “disruption of established S. aureus biofilm” value ([7]; 4× MIC (15.6 µM)) is reported as 93%. The “disruption … (in words)” value [8] was “not effective”, the IC50 [11] was 24.6 µM and the MIC90 [9] was 31.2 µM (≈ 15.3 µg/mL).

With `NCCCC[C@H](N)C(=O)NCCNC(=O)[C@H](Cc1c[nH]c2ccccc12)NC(=O)c1cc(Br)ccc1NC(=O)c1ccc2ccccc2c1` [Compound 19a, N-(4-bromo-2-(((S)-1-((2-((S)-2,6-diaminohexanamido)ethyl)amino)-3-(1H-indol-3-yl)-1-oxopropan-2-yl)carbamoyl)phenyl)-2-naphthamide] the “cytoplasmic membrane depolarization” value [5] was “greater membrane disruption in E. coli than in S. aureus”, the MIC ([6]; Staphylococcus aureus) was 15.6 µM (≈ 11.3 µg/mL) and the MIC90 ([6]; Staphylococcus aureus) was 15.6 µM (≈ 11.3 µg/mL). For the same compound, the “membrane damage” value [10] was “caused membrane damage”, the “disruption of established S. aureus biofilm” value ([7]; 2× MIC (31.2 µM)) was “over 60%” and the “disruption of established S. aureus biofilm” value ([7]; 8× MIC (125 µM)) was roughly 99%. The “disruption … (in words)” value [8] was “not effective”, the IC50 [11] was 83.9 µM and the MIC [9] was 15.6 µM (≈ 11.3 µg/mL). For the same compound, the MIC90 [9] was 15.6 µM (≈ 11.3 µg/mL) and the “improvement in antibacterial activity against E. coli compared to the parent compound” value ([9]; versus parent 12a, 12j) was greater than 16 fold.

In the case of `NCCCC[C@H](N)C(=O)NCCNC(=O)[C@H](Cc1c[nH]c2ccccc12)NC(=O)c1cc(Br)ccc1NC(=O)c1cccc(-c2ccccc2)c1` [Compound 19b, N-(4-bromo-2-(((S)-1-((2-((S)-2,6-diaminohexanamido)ethyl)amino)-3-(1H-indol-3-yl)-1-oxopropan-2-yl)carbamoyl)phenyl)-[1,1′-biphenyl]-3-carboxamide], the “cytoplasmic membrane depolarization” value [4] is reported as “reversed trend”, the MIC ([6]; Staphylococcus aureus) is reported as 15.6 µM (≈ 11.7 µg/mL) and the MIC90 ([6]; Staphylococcus aureus) is reported as 15.6 µM (≈ 11.7 µg/mL). The MIC90 [6] was 15.6 µM (≈ 11.7 µg/mL), the “membrane damage” value [10] was “caused membrane damage” and the “disruption of established S. aureus biofilm” value ([7]; 2× MIC (31.2 µM)) was “over 60%”. The “disruption of established S. aureus biofilm” value ([7]; 8× MIC (125 µM)) was roughly 99%, the “disruption … (in words)” value [8] was “significant disruption” and the “disruption of E. coli biofilm mass” value [8] was “little effect”. The “therapeutic window: IC50 to human cells over MIC90” value ([11]; IC50 MRC-5 versus MIC90 for either S. aureus or E. coli) was “over 10 times”, the IC50 [11] was 164 µM and the MIC [9] was 15.6 µM (≈ 11.7 µg/mL). For the same compound, the MIC90 [9] was 15.6 µM (≈ 11.7 µg/mL).
